# Results from US11442059B2, “Method for treating a chronic itch condition by administering small molecule MrgprX4 antagonists” (The Johns Hopkins University, priority 2017, dated 2022).
# Experiments:
# Mrgpra1 knockout mice = test: Dendritic cell adoptive transfer into Mrgpra1 KO mice with daily LTG; type: in vivo, mouse; settings: Mrgpra1 KO animals who received WT dendritic cells; 7-10 days of LTG 50 mg kg−1
# Protocol: Spleens from naïve 129S1 WT mice or Mrgpra1−/− mice were aseptically removed and DCs were isolated using mouse Pan Dendritic Cell isolation kit (Miltenyi Biotec) according to the manufacturer's manual. Briefly, single cell suspensions from spleen were generated by collagenase D/DNase I digestion as above mentioned. Then, cocktail of biotin-conjugated antibodies against non-dendritic cells followed by anti-biotin magnetic microbeads were added to the cell suspensions. Dendritic cells were separated from bead labelled non-dendritic cells using LS column. Dendritic cells freshly isolated either from WT mice or KO animals suspended in 200 μl Hanks' Balanced Salt Solution (HBSS) were injected intravenously (tail vein) into the naïve male Mrgpra1 knockout mice (2×10^6 cells/mouse) one day before starting daily LTG (50 mg kg^−1 body weight) administration.
# mouse Mrgpra1 = biological target: T1, mouse Mrgpra1 (Mus musculus, UniProt Q91WW5); test: Ca2+ imaging / EC50 determination in HEK293 cells expressing Mrgpra1; type: cell-based
# T1 construct: expressed in transfected cells; host or cells: HEK293
# T1 sequence (Q91WW5 1-304): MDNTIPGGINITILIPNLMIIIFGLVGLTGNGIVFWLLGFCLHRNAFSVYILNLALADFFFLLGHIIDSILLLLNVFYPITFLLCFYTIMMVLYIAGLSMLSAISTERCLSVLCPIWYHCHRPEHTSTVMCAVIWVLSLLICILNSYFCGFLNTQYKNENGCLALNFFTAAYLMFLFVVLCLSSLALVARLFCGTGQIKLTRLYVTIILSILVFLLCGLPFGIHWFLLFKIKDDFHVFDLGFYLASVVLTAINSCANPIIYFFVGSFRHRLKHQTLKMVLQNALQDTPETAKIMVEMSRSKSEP
# Protocol: (§1) Lamotrigine (LTG), allopurinol, carbamazepine and oxcarbazepine (all from Sigma) were prepared fresh on the day of the experiment. These drugs were dissolved into dimethyl sulfoxide (DMSO) first, and then were diluted at least 10000× into calcium imaging buffer before use. The final concentrations of drugs for each experiment were indicated in the corresponding figure legend.
# (§2) In initial experiments, HEK293 cells were plated on 100 μg/ml poly-D-lysine coated glass cover slips, and transiently transfected with vector containing Mrgprs gene, after 24-48 hours of culture, cells were loaded with Fura 2-acetomethoxy ester calcium indicator (0.5 μM, Molecular Probes) along with pluronic F-127 dispersing agent (0.1%, Molecular Probes) for 30 minutes in the dark at 37° C., then washed with calcium imaging buffer (CIB; NaCl 125 mM, KCl 3 mM, CaCl2 2.5 mM, MgCl2 0.6 mM, HEPES 10 mM, glucose 20 mM, NaHCO3 1.2 mM, sucrose 20 mM, brought to pH 7.4 with NaOH). Drugs were added to Fura 2-loaded cells and intracellular free calcium was measured using 340 nm and 380 nm excitation wavelengths with emission measured at 520 nm with a microscope based imaging system (Nikon Eclipse TE200). Changes in emission fluorescence ratios at 340/380 nm excitation were continuously monitored at 1 second intervals. Later, experiments were performed using Mrgpra1-GFP, Mrgprc11-GFP and MRGPRX4-GFP stable cell lines to confirm the findings obtained from the transiently expressing cells.
# (§3) Mrgpra1 or both wild-type and mutant MRGPRX4 stably expressed HEK cells were plated overnight in 100 μl culture media on 96-well plates. […] After 1 hour of incubation at 37° C., cells were allowed to recover for 10 minutes in the dark at room temperature prior to performing intracellular calcium mobilization assay in a FLEXSTATION® multi-mode plate reader (Molecular Devices). […] Responses were determined by subtracting the minimum signal (at the basal level before adding the drug) from the maximum signal (obtained after stimulating with the drug). […]
# MRGPRX2 = biological target: T2, MRGPRX2 (Homo sapiens, UniProt Q96LB1); test: Cell membrane chromatography, MRGPRX2/CMC column; type: binding; settings: affinity chromatography elution profile
# T2 construct: expressed in transfected cells; host or cells: HEK293 (MRGPRX2-HEK) membranes on silica
# T2 sequence (Q96LB1 1-330): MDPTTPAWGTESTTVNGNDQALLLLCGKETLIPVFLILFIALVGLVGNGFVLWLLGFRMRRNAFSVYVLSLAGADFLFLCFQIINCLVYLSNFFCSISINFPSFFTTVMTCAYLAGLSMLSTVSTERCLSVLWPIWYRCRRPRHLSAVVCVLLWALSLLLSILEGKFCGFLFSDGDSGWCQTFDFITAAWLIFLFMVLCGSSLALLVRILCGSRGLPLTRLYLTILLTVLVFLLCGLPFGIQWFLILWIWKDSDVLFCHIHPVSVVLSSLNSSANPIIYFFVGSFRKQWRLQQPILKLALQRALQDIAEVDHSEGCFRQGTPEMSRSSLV
# Protocol: CMC analysis was performed with a Shimadzu LC-2010A apparatus that consisted of pumps, degasser, autosampler, column oven, and a diode-array detector (Shimadzu, Kyoto, Japan). The data were acquired by the Lab-solution program (Shimadzu). The mobile phase consisted of phosphate-buffered saline (PBS; 5 mM, pH 7.4) and was delivered at a flow rate of 0.2 ml/min. The stock solutions (100 μM) of lamotrigine were prepared by separately dissolving the standard drugs in methanol. Standard solutions at various concentrations were prepared by diluting the stock solutions with the mobile phase. The MRGPRX2/CMC and MRGPRX4/CMC column was prepared as follows. Briefly, MRGPRX4-expressed HEK293 cells (1×10^8) were harvested and centrifuged (1000 g, 10 min, at 4° C.). Cells were washed with physiological saline (pH=7.4) by centrifugation at 1000 g for 10 min at 4° C. Cells were lysed by ultrasonic in Tris-HCl (50 mM, pH=7.4) for 30 min and centrifuged twice at 1000 g for 10 min at 4° C. The collected supernatant was then centrifuged at 12000 g for 20 min at 4° C. and the pellet was resuspended in 5 ml ice-cold physiological saline solution. […] The cell membrane suspension was homogenized/adsorbed with the activated silica under vacuum with agitation at 4° C. overnight. […]
# MRGPRX4 = MRGPRX4 (Homo sapiens, UniProt Q96LA9); test: Ca2+ imaging / EC50 determination in HEK293 cells expressing MRGPRX4; type: cell-based; design: expressed in transfected cells
# Protocol: as §1, §2, §3
# [1] = Mrgprs individually expressed in HEK293 cells
# Sequence of MRGPRX4 (Q96LA9 whole entry): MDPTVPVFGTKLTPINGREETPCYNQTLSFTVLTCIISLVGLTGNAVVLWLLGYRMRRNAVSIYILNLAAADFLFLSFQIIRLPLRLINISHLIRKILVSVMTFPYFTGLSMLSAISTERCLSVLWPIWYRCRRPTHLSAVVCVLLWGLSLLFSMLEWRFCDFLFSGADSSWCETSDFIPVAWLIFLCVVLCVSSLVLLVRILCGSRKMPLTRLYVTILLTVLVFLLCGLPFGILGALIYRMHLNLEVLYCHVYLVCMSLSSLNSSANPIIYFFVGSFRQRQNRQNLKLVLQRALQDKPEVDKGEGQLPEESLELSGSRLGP
compound,measurement,setting,value
"Nc1nnc(-c2cccc(Cl)c2Cl)c(N)n1 [LTG, Lamotrigine]",animals developing SJS-like eye manifestation,Mrgpra1 knockout mice,64%
same,EC50,"mouse Mrgpra1; HEK293 cells, Ca2+ assay",~30 µM
same,activation of mouse Mrgpra1 (Ca2+ imaging),mouse Mrgpra1; [1],specifically activated
same,retention on MRGPRX2/CMC column,MRGPRX2,cannot retain
same,EC50,"MRGPRX4; HEK293 cells, Ca2+ assay",~200 µM
same,activation of human MRGPRX4 (Ca2+ imaging),MRGPRX4; [1],specifically activated
